Experimental data taken from patent US7993916B2, “Methods for increasing definitive endoderm production” (Viacyte, Inc., priority 2007, dated 2011).

Tested on: hESCs (CyT203 p36)
Conditions: EDTA 0.075 mM, PBS−/− wash, about 18 hr, activin A 100 ng/ml and Wnt3a 25 ng/ml, RPMI without FBS
Experimental: Cell cultures and culture conditions were substantially similar to that described above and in D'Amour et al. 2005 and 2006 supra. […] Samples of undifferentiated hESCs were taken prior to the start of the differentiation procedure. Plates were briefly washed with 2 ml of PBS either containing Ca^2+ or Mg^2+ or without Ca^2+ and Mg^2+ (PBS^−/−). In addition, the one plate which was washed with PBS^−/− also received ethylenediamine tetraacetic acid (EDTA) at 0.075 mM to reduce the concentration of Ca^2+ ions present in the media.

Compound: O=C(O)CN(CCN(CC(=O)O)CC(=O)O)CC(=O)O [EDTA, ethylenediamine tetraacetic acid]
- increase in expression for the DE marker (CER): three-fold
- increase in gene expression for mesendoderm markers (BRACH, NODAL): two-fold
